Measured values: patent publication EP2204363A1, “New disubstituted phenylpiperidines/piperazines as modulators of dopamine neurotransmission” (NSAB, Filial af NeuroSearch Sweden AB, Sverige, priority 2004, dated 2005)
Like-named read-outs stand apart in the source and are kept apart here.

Assays:
[1] = test system: DOPAC (3,4-dihydroxyphenylacetic acid) in the rat striatum; experiment: In vivo neurochemistry: increase of DOPAC in the rat striatum; conditions: for ED50: read-out: ED50 DOPAC
Description: After the behavioural activity sessions, the rats were decapitated and their brains rapidly taken out and put on an ice-cold petri-dish. The limbic forebrain, the striatum, the frontal cortex and the remaining hemispheral parts of each rat were dissected and frozen. Each brain part was subsequently analyzed with respect to its content of monoamines and their metabolites.
The monoamine transmitter substances (NA (noradrenaline), DA (dopamine), 5-HT (serotonin)) as well as their amine (NM (normethanephrine), 3-MT (3-methoxytyramine)) and acid (DOPAC (3,4-dihydroxyphenylacetic acid), 5-HIAA (5-hydroxyindoleacetic acid), HVA (homovanillic acid)) metabolites are quantified in brain tissue homogenates by HPLC separations and electrochemical detection
The analytical method is based on two chromatographic separations dedicated for amines or acids. Two chromatographic systems share a common auto injector with a 10-port valve and two sample loops for simultaneous injection on the two systems. Both systems are equipped with a reverse phase column (Luna C18(2), dp […], 50*2mm i.d., Phenomenex) and electrochemical detection is accomplished at two potentials on glassy carbon electrodes (MF-1000, Bioanalytical Systems, Inc.). The column effluent is passed via a T-connection to the detection cell or to a waste outlet. This is accomplished by two solenoid valves, which block either the waste or detector outlet. By preventing the chromatographic front from reaching the detector, better detection conditions are achieved. […] Detection potentials relative to Ag/AgCl reference are 0.45 and 0.60V. […] Detection potentials relative to Ag/AgCl reference are 0.45 and 0.65V.
ED50 values for the increase of DOPAC in striatum are calculated by curve fitting.

[2] = Metabolic stability in rat liver microsomes; type: in vitro ADME; conditions: pH 7.4, 37 °C, NADPH, fraction of test compound eliminated after 15 minutes, read-out: turnover at 15 minutes
Description: The protein precipitation was then removed by rejecting the pellet after centrifugation at 10.000 g for 10 minutes (Heraeus, Biofuge fresco) in 4°C. The test compound was analysed using HPLC-MS (Hewlett-Packard 1100MSD Series) with a Zorbax SB-C18 column (2.1*150 mm, 5 µm) using 0.03% formic acid and acetonitrile as mobile phase (gradient) or a Zorbax Eclipse XDB-C18 (3*75 mm, 3.5µm) using 0.03% acetic acid and acetonitrile as mobile phase (gradient).

[3] = test system: levels of dopamine and norepinephrine in the cortex; experiment: Microdialysis in awake and freely moving rats (cortex); type: in vivo; conditions: percent of control in relation to baseline
drug-naive rats = experiment: In vivo behaviour: locomotor activity in drug-naive rats; conditions: ± SEM
Description: (§1) Photobeam sensors were spaced 2.5 cm apart.

MK-801 pre-treated rats = experiment: In vivo behaviour: locomotor activity in MK-801 pre-treated rats; conditions: MK-801 0.7 mg/kg i.p. 90 minutes before test compound, 30 to 60 minutes after administration, ± SEM
Description: as §1

[4] = Activity of compounds of Formula 1 (test not specified)
[5] = sc, estimated ED50 on increase of DOPAC in rat striatum after systemic administration (s.c.), maximal effects limited to 350 - 400% of control, range covers 95% of fits
[6] = drug-naive rats, 11 µmol/kg, recorded for 60 minutes
[7] = drug-naive rats, 33 µmol/kg, recorded for 60 minutes
[8] = drug-naive rats, 100 µmol/kg, recorded for 60 minutes
[9] = drug-naive habituated rats, 11 µmol/kg, recorded between 30 and 60 minutes
[10] = drug-naive habituated rats, 33 µmol/kg, recorded between 30 and 60 minutes
[11] = drug-naive habituated rats, 100 µmol/kg, recorded between 30 and 60 minutes

Structure (SMILES)	ED50 [1, 5]	Locomotor activity (drug-naive rats; [6])	Locomotor activity (drug-naive rats; [7])	Locomotor activity (drug-naive rats; [8])	further results
CCN1CCC(c2cccc(S(C)(=O)=O)c2)CC1 [Example 12 of WO01/46145, reference compound]	154 µmol/kg	–	–	–	–
CCN1CCC(c2cccc(S(C)(=O)=O)c2F)CC1 [Example 2, 1-ETHYL-4-[2-FLUORO-3-(METHYLSULFONYL)PHENYL]-PIPERIDINE]	–	–	–	–	metabolised at 0.25 h [2]: 1%; levels of dopamine and norepinephrine in the cortex ([3]; Figure 2: 50 mol/kg s.c. (so in the source), pf. cortex): elevate the levels of dopamine and norepinephrine in the cortex
CCCN1CCC(c2cccc(C(F)(F)F)c2OC)CC1 [Example 8, 4-[2-METHOXY-3-(TRIFLUOROMETHYL)PHENYL]-1-PROPYLPIPERIDINE]	–	–	–	–	metabolised at 0.25 h [2]: 49%
COCCN1CCN(c2cccc(C(F)(F)F)c2F)CC1 [Example 10, 1-[2-FLUORO-3-(TRIFLUOROMETHYL)PHENYL]-4-(2-METHOXYETHYL)PIPERAZINE]	–	–	–	–	ED50 ([1]; Rattus norvegicus, sc): 6.2 µmol/kg
CCCN1CCC(c2cccc(C(F)(F)F)c2)CC1 [reference compound]	–	–	–	–	ED50 DOPAC ([1]; estimated ED50 on increase of DOPAC in rat striatum after systemic administration (s.c.), maximal effects limited to 350 - 400% of control, range covers 95% of fits): 84 (47 - 110) µmol/kg
CCCN1CCC(c2cccc(S(C)(=O)=O)c2Cl)CC1 [Example 3, 4-[2-CHLORO-3-(METHYLSULFONYL)PHENYL]-1-PROPYLPIPERIDINE]	9.9 µmol/kg	6078 ± 605 counts/60 min	3023 ± 246 counts/60 min	1327 ± 299 counts/60 min	Locomotor activity, MK + example (MK-801 pre-treated rats; 100 µmol/kg (footnote 1)): 4911 ± 2953^1 (P=0.08) counts/30 min
CCCN1CCC(c2cccc(C(F)(F)F)c2C#N)CC1 [Example 7, 2-(1-PROPYLPIPERIDIN-4-YL)-6-(TRIFLUOROMETHYL)BENZONITRILE]	9.7 µmol/kg	7008 ± 700 counts/60 min	4694 ± 986 counts/60 min	2829 ± 358 counts/60 min	metabolised at 0.25 h [2]: 22%
CCCN1CCC(c2cccc(S(C)(=O)=O)c2C)CC1 [Example 4, 4-[2-METHYL-3-(METHYLSULFONYL)PHENYL]-1-PROPYLPIPERIDINE]	58 µmol/kg	8972 ± 1124 counts/60 min	9023 ± 1415 counts/60 min	4473 ± 924 counts/60 min	metabolised at 0.25 h [2]: 4%
CCCN1CCN(c2cccc(Cl)c2Cl)CC1 [Example 11, 1-(2,3-DICHLOROPHENYL)-4-PROPYLPIPERAZINE]	–	5149 ± 374 counts/60 min	4032 ± 828 counts/60 min	3299 ± 637 counts/60 min	ED50 ([1]; Rattus norvegicus, sc): 3.5 µmol/kg
CCCN1CCN(c2cccc(C#N)c2C(F)(F)F)CC1 [Example 14, 3-(4-PROPYLP I PE RAZI N-1-YL)-2-(TRI FLUORO-M ETHYL)B ENZON ITRI LE]	–	–	–	–	ED50 ([1]; Rattus norvegicus, sc): 2.4 µmol/kg
CCCN1CCC(c2cccc(S(C)(=O)=O)c2C(F)(F)F)CC1 [4-[3-(methylsulfonyl)-2-(trifluoromethyl)phenyl]-1-propylpiperidine]	–	–	–	–	activity [4]: inactive
CCCN1CCC(c2ccc(Cl)c(C(F)(F)F)c2)CC1 [Example 9 of WO01/46146, reference compound]	–	–	–	–	ED50 ([1]; Rattus norvegicus): 40 µmol/kg
CCCN1CCC(c2cccc(S(C)(=O)=O)c2F)CC1 [Example 1, 4-[2-FLUORO-3-(METHYLSULFONYL)PHENYL]-1-PROPYLPIPERIDINE]	28 µmol/kg	9500 ± 617 counts/60 min	7371 ± 992 counts/60 min	8103 ± 1047 counts/60 min	Locomotor activity (drug-naive rats; [9]): 1708 ± 922 counts/30 min; Locomotor activity (drug-naive rats; [10]): 1337 ± 141 (P=0.001) counts/30 min; Locomotor activity (drug-naive rats; [11]): 1365 ± 460 (P=0.057) counts/30 min; Locomotor activity, MK + example (MK-801 pre-treated rats; 33 µmol/kg): 29636 ± 10019 (P=0.08) counts/30 min; metabolised at 0.25 h [2]: 3%
CCCN1CCC(c2ccc(F)c(C(F)(F)F)c2)CC1 [Example 43 of WO01/46146, reference compound]	–	–	–	–	ED50 ([1]; estimated ED50 on increase of DOPAC in rat striatum, maximal effects set to 200% of control, range covers 95% of fits): 35 µmol/kg
CN1CCN2c3ncccc3Cc3ccccc3C2C1 (stereo not drawn) [mirtazapine, reference compound]	–	–	–	–	extracellullar norepinephrine and dopamine in the cortex ([3]; Figure 1: Remeron 10mg/kg s.c., cortex): increase predominantly extracellullar norepinephrine and dopamine in the cortex
CCCN1CCC(c2cccc(C#N)c2C(F)(F)F)CC1 [Example 13, 3-(1-PROPYLPIPERIDIN-4-YL)-2-(TRIFLUORO-METHYL)BENZONITRILE]	–	–	–	–	Locomotor activity (drug-naive rats; [9]): 960 ± 710 counts/30 min; Locomotor activity (drug-naive rats; [10]): 2870 ± 613 (P=0.008) counts/30 min; Locomotor activity (drug-naive rats; [11]): 4366 ± 1389 (P=0.030) counts/30 min
CCCN1CCC(c2cccc(S(C)(=O)=O)c2C#N)CC1 [Example 15, 2-(METHYLSULFONYL)-6-(1-PROPYLPIPERIDIN-4-YL)BENZONITRILE]	28 µmol/kg	–	–	–	–
CCCN1CCN(c2cccc(C(F)(F)F)c2F)CC1 [Example 9, 1-[2-FLUORO-3-(TRIFLUOROMETHYL)PHENYL]-4-PROPYLPIPERAZINE]	–	3721 ± 242 counts/60 min	3518 ± 435 counts/60 min	4265 ± 758 counts/60 min	Locomotor activity, MK + example (MK-801 pre-treated rats; 11 µmol/kg (footnote 2)): 5916± 1918^2 (P=0.002) counts/30 min; ED50 ([1]; Rattus norvegicus, sc): 1.9 µmol/kg
